Assay [1] concerns Truncated N-terminal huntington 150 Q-EGFP-Neuron 2a cells. The assay can be described thus: Measurement of x-Fold (polyglutamine aggregation inhibitory activity). It counts as cell-based. How it is done:
In the present invention, the polyglutamine aggregation inhibitory activity (x-Fold) can be measured, for example, by the method described in the Example.
The number of the aggregated cells, and the total number of cells were counted by Array Scan V T1 (manufactured by Cellomics, Pittuburg, USA), and the ratio of the aggregated cells to the total number of cells was determined (x-Fold). […]

The next assay deals with transglutaminase (TGase). The assay can be described thus: Measurement of TG (TGase inhibitory activity, monodansyl cadaverine / N,N-dimethylcasein fluorescence, FDSS 3000). It counts as biochemical. How it is done:
For example, the method described in the Example can be performed.
The compound of the present invention (10 mM, 1 μL) was taken in a 96-well plate (Nunc, 96 Well Black Plate with Clear Bottom), an enzyme reaction solution (100 mM HEPES-NaOH, pH 7.5, 1 mM CaCl2, 20 μM monodansyl cadaverine, 0.05 mg/mL N,N-dimethylcasein, 5 μg/mL TGase) (0.1 ml) was added and the mixture was sufficiently mixed without making foams. The mixture was set on a fluorescence drug screening system FDSS 3000 (Hamamatsu Photonics K.K.), and changes in the fluorescence wavelength per unit time at 340 nm were measured, based on which the TGase inhibitory activity of the compound of the present invention was calculated. As a control, change in the fluorescence when 1 μL of DMSO (dimethyl sulfoxide) was added instead of the compound of the present invention was taken as 100, and TG50 was when the activity decreased to half due to the compound of the present invention.

Where [2] appears, read: polyglutamine aggregation inhibitory activity, Table 1.
[3] abbreviates: ratio of aggregated cells to total number of cells, compound 20 μM, 20 hr, almost 1 without compound, smaller = stronger inhibition.
[4] abbreviates: TGase activity with compound (10 mM, 1 μL in 0.1 ml enzyme reaction solution), DMSO control taken as 100.
The mark [5] stands for this setting: TGase inhibitory activity value, Table 1.

For the compound “4,4′-(phenyl piperazino-O,O-ethoxyboryl)benzylether [Example 197]”, the x-Fold in assay [1] (setting [2]) and in assay [1] (setting [3]) was 1.02 each time. Further, the “TGase activity remaining (% of DMSO control = 100)” value in the assay with transglutaminase (TGase) (setting [4]) and in the assay on transglutaminase (TGase) (setting [5]) was 99 throughout.

Consider `NCCSB(c1ccc(Cl)cc1F)c1ccc(Cl)cc1F` [Example 1, 2-aminoethylthio bis(4-chloro-2-fluorophenyl)borane], for which the x-Fold in assay [1] (setting [2]) and in assay [1] (setting [3]) was 0.95 in each case. Further, the “TGase activity remaining (% of DMSO control = 100)” value in the assay on transglutaminase (TGase) (setting [4]) and in the assay with transglutaminase (TGase) (setting [5]) was 28 throughout.

Turning to `CN(C)CCOB(c1ccc(C(F)(F)F)cc1)c1ccc(C(F)(F)F)cc1` [Example 69, 2-dimethylaminoethyl bis(4-trifluoromethylphenyl)borinate], the x-Fold in assay [1] (polyglutamine aggregation inhibitory activity, Table 1, listed as 5034) came to 1.02; in assay [1] (setting [3]), 1.02. Also, the “TGase activity remaining (% of DMSO control = 100)” value was 76 in the assay with transglutaminase (TGase) (setting [4]) and 76 in the assay with transglutaminase (TGase) (TGase inhibitory activity value, Table 1, listed as 5034).

For the compound `OB(c1ccc(C(F)(F)F)cc1)c1ccc(C(F)(F)F)cc1` [Example 75, bis(4-trifluoromethylphenyl)borinic acid], the x-Fold turned out to be 0.88 in assay [1] (polyglutamine aggregation inhibitory activity, Table 1, listed as 6001) and 0.88 in assay [1] (setting [3]). In addition, the “TGase activity remaining (% of DMSO control = 100)” value worked out at 97 with transglutaminase (TGase) (setting [4]) and 97 in the assay with transglutaminase (TGase) (TGase inhibitory activity value, Table 1, listed as 6001).

As to `OB(c1ccc(F)c(Cl)c1)c1ccc(F)c(Cl)c1` [Example 76, bis(3-chloro-4-fluorophenyl)borinic acid], the x-Fold in assay [1] (setting [2]) and in assay [1] (setting [3]) was 0.78 each time. The “TGase activity remaining (% of DMSO control = 100)” value in the assay on transglutaminase (TGase) (setting [4]) and in the assay on transglutaminase (TGase) (setting [5]) was 117 each time.

Take `NCCOB(c1ccc(F)c(Cl)c1)c1ccc(F)c(Cl)c1` [Example 77, 2-aminoethyl-bis(3-chloro-4-fluorophenyl)borinate]: the x-Fold amounted to 0.91 in assay [1] (polyglutamine aggregation inhibitory activity, Table 1, listed as 6006) and 0.91 in assay [1] (setting [3]). In addition, the “TGase activity remaining (% of DMSO control = 100)” value was 98 with transglutaminase (TGase) (setting [4]) and 98 with transglutaminase (TGase) (TGase inhibitory activity value, Table 1, listed as 6006).

For `CN(C)CCOB(c1ccc(F)c(Cl)c1)c1ccc(F)c(Cl)c1` [Example 78, 2-dimethylaminoethyl bis(3-chloro-4-fluorophenyl)borinate], the x-Fold in assay [1] (setting [2]) and in assay [1] (setting [3]) was 1.02 throughout. The “TGase activity remaining (% of DMSO control = 100)” value with transglutaminase (TGase) (setting [4]) and in the assay with transglutaminase (TGase) (setting [5]) was 104 throughout.

As to `OB(c1ccc(Cl)cc1F)c1ccc(Cl)cc1F` [Example 79, bis(4-chloro-2-fluorophenyl)borinic acid], the x-Fold in assay [1] (setting [2]) and in assay [1] (setting [3]) was 0.88 in each case. Moreover, the “TGase activity remaining (% of DMSO control = 100)” value with transglutaminase (TGase) (setting [4]) and with transglutaminase (TGase) (setting [5]) was 97 throughout.

As for `OB(c1ccc(F)c(F)c1)c1ccc(F)c(F)c1` [Example 80, bis(3,4-difluorophenyl)borinic acid], the x-Fold in assay [1] (setting [2]) and in assay [1] (setting [3]) was 0.90 in each case. Besides, the “TGase activity remaining (% of DMSO control = 100)” value in the assay on transglutaminase (TGase) (setting [4]) and with transglutaminase (TGase) (setting [5]) was 93 each time.

Consider `OB(c1cc(F)c(F)c(F)c1)c1cc(F)c(F)c(F)c1` [Example 81, bis(3,4,5-trifluorophenyl)borinic acid], for which the x-Fold in assay [1] (setting [2]) and in assay [1] (setting [3]) was 0.92 each time. The “TGase activity remaining (% of DMSO control = 100)” value with transglutaminase (TGase) (setting [4]) and in the assay on transglutaminase (TGase) (setting [5]) was 97 each time.

Turning to `OB(c1ccc(Cl)c(F)c1)c1ccc(Cl)c(F)c1` [Example 83, bis(3-fluoro-4-chlorophenyl)borinic acid], the x-Fold in assay [1] (polyglutamine aggregation inhibitory activity, Table 1, listed as 6012) is recorded as 0.92; in assay [1] (setting [3]), 0.92. For the same compound, the “TGase activity remaining (% of DMSO control = 100)” value in the assay with transglutaminase (TGase) (setting [4]) turned out to be 101; with transglutaminase (TGase) (TGase inhibitory activity value, Table 1, listed as 6012) it was 101.

`NCCOB(c1ccc(Cl)cc1F)c1ccc(Cl)cc1F` [Example 84, 2-aminoethyl bis(4-chloro-2-fluorophenyl)borinate]: the x-Fold in assay [1] (setting [2]) and in assay [1] (setting [3]) was 0.92 each time. The “TGase activity remaining (% of DMSO control = 100)” value with transglutaminase (TGase) (setting [4]) and in the assay with transglutaminase (TGase) (setting [5]) was 91 throughout.

For the compound `NCCOB(c1ccc(F)c(Cl)c1)c1ccc(F)c(Cl)c1` [Example 86, 2-aminoethyl bis(3-chloro-4-fluorophenyl)borinate], the x-Fold in assay [1] (polyglutamine aggregation inhibitory activity, Table 1, listed as 6015) stood at 0.99; in assay [1] (setting [3]), 0.99. For the same compound, the “TGase activity remaining (% of DMSO control = 100)” value is 103 with transglutaminase (TGase) (setting [4]) and 103 with transglutaminase (TGase) (TGase inhibitory activity value, Table 1, listed as 6015).

Turning to `NCCOB(c1ccc(F)c(F)c1)c1ccc(F)c(F)c1` [Example 87, 2-aminoethyl bis(3,4-difluorophenyl)borinate], the x-Fold in assay [1] (setting [2]) and in assay [1] (setting [3]) was 1.02 in each case. Moreover, the “TGase activity remaining (% of DMSO control = 100)” value with transglutaminase (TGase) (setting [4]) and with transglutaminase (TGase) (setting [5]) was 91 each time.

Consider `OB(c1ccccc1)c1cccc(COCc2ccccc2B(O)c2ccccc2)c1` [Example 124, (2-phenylhydroxyborylbenzyl)(3-(phenylhydroxyboryl)benzyl)ether], for which the x-Fold came out at 0.96 in assay [1] (polyglutamine aggregation inhibitory activity, Table 1, listed as 656) and 0.96 in assay [1] (setting [3]).

In the case of `FC(F)(F)c1ccc(C(OB(c2ccccc2)c2cc(B(OC(c3ccc(C(F)(F)F)cc3)c3ccccn3)c3ccccc3)cc(B(OC(c3ccc(C(F)(F)F)cc3)c3ccccn3)c3ccccc3)c2)c2ccccn2)cc1` (centres unmarked) [Example 132, 1,3,5-tri(2-pyridyl-4-trifluoromethylphenylmethoxyphenylboryl)benzene], the x-Fold in assay [1] (setting [2]) and in assay [1] (setting [3]) was 0.95 throughout.

`Cc1ccc(Cl)cc1B(OCCNCc1ccccc1)c1cc(Cl)ccc1C` [Example 164, di(3-chloro-6-methylphenyl)benzylaminoethylborinate]: in assay [1] (setting [3]), the x-Fold is given as 0.67.

On to `Cc1ccc(Cl)cc1B(OCCN)c1cc(Cl)ccc1C` [Example 166, di(3-chloro-6-methylphenyl)aminoethylborinate], for which, in assay [1] (setting [3]), the x-Fold was 0.70.

In the case of `NCC(=O)OB(c1ccccc1)c1ccc(Oc2ccc(B(OC(=O)CN)c3ccccc3)cc2)cc1` [Example 169, di((phenylglycine-O,N boryl)phenyl)ether], in assay [1] (setting [3]), the x-Fold came out at 0.78.

In the case of `CN(C)CCOB(c1ccccc1)c1cccc(COCc2cccc(B(OCCN(C)C)c3ccccc3)c2)c1` [Example 172, bis(3,3′(phenyldimethylaminoethoxyboryl)benzyl)ether], the x-Fold turned out to be 1.22 in assay [1] (polyglutamine aggregation inhibitory activity, Table 1, listed as 2024) and 1.22 in assay [1] (setting [3]).

For the compound `Cc1ccc(B(OCCN(C)C)c2ccc(C)c(Cl)c2)cc1Cl` [Example 207, di(3-chloro-4-methylphenyl)dimethylaminoethylborinate], the x-Fold in assay [1] (setting [2]) and in assay [1] (setting [3]) was 0.91 in each case.

In the case of `Cc1ccc(B(OCC(N)Cc2ccccc2)c2ccc(C)c(Cl)c2)cc1Cl` (centres unmarked) [Example 208, di(3-chloro-4-methylphenyl)-2-benzyl-2-aminoethylborinate], the x-Fold in assay [1] (setting [2]) and in assay [1] (setting [3]) was 0.67 throughout.

Regarding `NC(COB(c1ccccc1)c1ccccc1)Cc1ccccc1` [Example 212, diphenyl(R) 2-benzyl-2-aminoethyl borinate], the x-Fold in assay [1] (polyglutamine aggregation inhibitory activity, Table 1, listed as 3073) was found to be 0.75; in assay [1] (setting [3]) it was 0.75.

Regarding `NC(COB(c1ccccc1)c1ccccc1)Cc1ccccc1` [Example 213, diphenyl(S) 2-benzyl-2-aminoethyl borinate], the x-Fold was determined as 1.00 in assay [1] (polyglutamine aggregation inhibitory activity, Table 1, listed as 3075) and 1.00 in assay [1] (setting [3]).

In the case of `OB(c1ccc(C(F)(F)F)cc1)c1ccc(C(F)(F)F)cc1` [Example 230, di(trifluoromethylphenyl)borinic acid], the x-Fold in assay [1] (polyglutamine aggregation inhibitory activity, Table 1, listed as 4138) is on record as 1.03; in assay [1] (setting [3]) it was 1.03.

`OB(c1cccs1)c1cccs1` [Example 253]: the x-Fold in assay [1] (setting [3]) is 1.11.

Consider `OB(O)c1cccc2ccccc12` [Example 324, naphthaleneboronic acid], for which the x-Fold in assay [1] (setting [2]) and in assay [1] (setting [3]) was 0.76 in each case.

Regarding `NCCOB(c1ccccc1)c1cccc(COCCc2ccccc2B(OCCN)c2ccccc2)c1` [Example 369], the x-Fold in assay [1] (setting [2]) and in assay [1] (setting [3]) was 1.10 each time.

With `NCCOB(c1ccc(Oc2ccccc2)cc1)c1ccc(Oc2ccc(B(OCCN)c3ccc(Oc4ccccc4)cc3)cc2)cc1` [Example 398, bis(4,4′-(phenoxyphenyl-aminoethoxyboryl)phenyl)ether], the x-Fold was found to be 0.88 in assay [1] (polyglutamine aggregation, Truncated N-terminal huntington 150 Q-EGFP-Neuron 2a cells) and 0.88 in assay [1] (setting [3]).

Regarding `Cc1ccc(B(OC(=O)C(N)CC(N)=O)c2ccc(C)c(Cl)c2)cc1Cl` (centres unmarked) [Example 448], in assay [1] (setting [3]), the x-Fold was 0.95.
